From US5637591A, “Antimicrobial and anticollagenase activity of phenazine-5, 10-dioxide and derivatives” (Fuji ImmunoPharmaceuticals Corp., priority 1995, dated 1997)
≈ marks a conversion by molar mass, not a printed value. Where two headings read alike, the source gives them in different places.

Legend:
[1] = test system: Fusobacterium necrophorum; assay: anaerobic liquid culture growth inhibition, OD 650 nm; format: cell-based; settings: anaerobic overnight, OD 650 nm, read-out: IC50 Fusobacterium necrophorum
Bacteroides fragilis = assay: as above; format: cell-based; settings: anaerobic overnight, OD 650 nm, read-out: IC50 Bacteroides fragilis
Pseudomonas aeruginosa = assay: IC90 in plating medium, 24-well plates; format: cell-based
Experimental: (§1) Drug solutions were mixed with plating medium to produce a range of final drug concentrations. Media with drug were plated in the wells of 24-well plates. A drop of bacterial suspension containing 2-5×10^2 CFU was placed on each well. Plates were incubated overnight at 37° C.
(§2) The concentration of the compound necessary to reduce viability of each micro-organism by 90% (inhibitory concentration 90%=IC90) is reported in Table 3 as μg/ml. Bacterial strains are listed in order of decreasing susceptibility to 2-aminophenazine-5,10-dioxide.

Serratia marsescens = assay: IC90 in plating medium, 24-well plates; format: cell-based
Experimental: as §1, §2

Klebsiella pneumoniae = assay: IC90 in plating medium, 24-well plates; format: cell-based
Experimental: as §1, §2

Staphylococcus aureus = assay: IC90 in plating medium, 24-well plates; format: cell-based
Experimental: as §1, §2

Enterobacter cloacae = assay: IC90 in plating medium, 24-well plates; format: cell-based
Experimental: as §1, §2

Corynebacterium xerosis = assay: IC90 in plating medium, 24-well plates; format: cell-based
Experimental: as §1, §2

Streptococcus faecalis = assay: IC90 in plating medium, 24-well plates; format: cell-based; settings: Enterococcus faecalis
Experimental: as §1, §2

E. coli (strain B) = assay: IC90 in plating medium, 24-well plates; format: cell-based; settings: Escherichia coli, rfa
Experimental: as §1, §2

Bacillus cereus = assay: IC90 in plating medium, 24-well plates; format: cell-based; settings: 90% inhibition of growth, overnight 37° C.
Experimental: as §1, §2

Micrococcus luteus = assay: IC90 in plating medium, 24-well plates; format: cell-based
Experimental: as §1, §2

Proteus mirabilis = assay: IC90 in plating medium, 24-well plates; format: cell-based
Experimental: as §1, §2

[2] = oral bioavailability in rats (AUC versus intravenous); settings: rat, in vivo
Experimental: The bioavailibility of orally delivered substituted phenazine-5,10-dioxideswas measured because oral delivery also can comprise systemic administration. The bioavailibility was assessed for the phenazine-5,10-dioxide derivative, 2-aminophenazine-5,10-dioxide administered by oral gavage to rats. Vehicles and dose levels are detailed in Table 9. Calculations of bioavailability (F) following oral administration were made based on area under the curve (AUC) calculations and comparsion with intravenous administration.

[3] = test system: P. gingivalis strain 2561; assay: minimum inhibitory concentration by addition to plating medium; format: cell-based; settings: for MIC: Porphyromonas gingivalis, 2561, 168 h, read-out: P. gingivalis MIC; for concentration range of activity against P. gingivalis: molar basis; for activity greater than Tetracycline against P. gingivalis: weight-concentration basis
Experimental: (§3) Solutions of the agents were tested for activity against Escherichia coli strain DH5α by a zone inhibition method, and against P. gingivalis strain 2561 by addition to plating medium to determine minimum inhibitory concentrations (M/C). For the zone inhibition study, a suspension of E. coli was spread on the surface of an agar plate. A 3 mm diameter paper disk was placed on the seeded agar surface, and 10 μl of solution of each compound formulated at 1 mg/ml was added to the disk. Plates were incubated overnight at 37° C. The radius of the zone of inhibition was measured from the center of the disk to the edge of the E. coli bacterial lawn. For determination of MIC, drug solutions were mixed with plating medium to produce a range of final drug concentrations. Media with drug were plated in the wells of 24-well plates. A drop of bacterial suspension containing 2-5×10^2 CFU P. gingivalis was placed on each well. Plates were incubated 1 week in an anaerobic chamber at 37° C.

Bacteroides levii = assay: anaerobic liquid culture growth inhibition, OD 650 nm; format: cell-based; settings: Porphyromonas levii; anaerobic overnight, OD 650 nm; read-out: IC50 Bacteroides levii
[4] = test system: Porphyromonas gingivalis RB-22D-1; assay: as above; format: cell-based; settings: RB22D1, anaerobic overnight, OD 650 nm, read-out: IC50 Porphyromonas gingivalis RB-22D-1
[5] = test system: Porphyromonas gingivalis 2561; assay: as above; format: cell-based; settings: Porphyromonas gingivalis, 2561; anaerobic overnight, OD 650 nm; read-out: IC50 Porphyromonas gingivalis 2561
Fusobacterium nucleatum = assay: as above; format: cell-based; settings: anaerobic overnight, OD 650 nm, read-out: IC50 Fusobacterium nucleatum
[6] = test system: Peptostreptococcus anaerobius; assay: as above; format: cell-based; settings: anaerobic overnight, OD 650 nm, read-out: IC50 Peptostreptococcus anaerobius
Clostridium perfringens = assay: microbe, parasite or virus in culture; format: cell-based; settings: read-out: IC50 Clostridium perfringens
[7] = test system: Escherichia coli strain DH5α; assay: zone inhibition method on agar plate; format: cell-based; settings: Escherichia coli; 10 μl of 1 mg/ml on 3 mm paper disk, overnight 37° C.; radius from center of disk; read-out: E. coli Clear Zone
Experimental: as §3

[8] = format: in vivo; settings: for Other Signs of Toxicity: mouse, in vivo, ip
Text: The potential for toxic side effects following systemic administration similar to the method used in the efficacy study was investigated by administering the compound 2-methylphenazine-5,10-dioxide to mice either in single or multiple intraperitoneal (IP) injections.

[9] = complete inhibition of growth, 1 week anaerobic, 37° C.

With `Nc1ccc2c(c1)[n+]([O-])c1ccccc1[n+]2[O-]` [2-aminophenazine-5,10-dioxide] the IC50 [1] was 0.03 µg/mL (≈ 0.132 µM), the IC50 (Bacteroides fragilis) was 1 µg/mL (≈ 4.4 µM) and the IC90 (Pseudomonas aeruginosa) was > 10 µg/mL. For the same molecule, the IC90 (Serratia marsescens) was 10 µg/mL (≈ 44 µM), the IC90 (Klebsiella pneumoniae) was 10 µg/mL (≈ 44 µM) and the IC90 (Staphylococcus aureus) was 0.62 µg/mL (≈ 2.73 µM). The IC90 (Enterobacter cloacae) was > 10 µg/mL, the IC90 (Corynebacterium xerosis) was 1.25 µg/mL (≈ 5.5 µM) and the IC90 (Streptococcus faecalis) was 5 µg/mL (≈ 22 µM). For the same molecule, the IC90 (E. coli (strain B)) was 0.31 µg/mL (≈ 1.36 µM), the IC90 (Bacillus cereus) was 0.31 µg/mL (≈ 1.36 µM) and the “activity against M. luteus” value (Micrococcus luteus) was “lack of activity”. The IC90 (Micrococcus luteus; Micrococcus luteus) was 10 µg/mL (≈ 44 µM), the IC90 (Proteus mirabilis) was 5 µg/mL (≈ 22 µM) and the AUC ([2]; iv, 10 mg/kg, rats, 10 mg/kg IV administration) was 390 ng·h/mL. For the same molecule, the AUC ([2]; po, 50 mg/kg, rats, 50 mg/kg oral, 2% Brij35/water) was 1480 ng·h/mL, the bioavailability ([2]; po, 50 mg/kg, rats, 50 mg/kg oral, 2% Brij35/water, compared to 10 mg/kg IV, read-out: F (Bioavailability)) was 76% and the AUC ([2]; po, 50 mg/kg, rats, 50 mg/kg oral, 10% Brij35/Mineral oil) was 2380 ng·h/mL. It also gave a bioavailability ([2]; po, 50 mg/kg, rats, 50 mg/kg oral, 10% Brij35/Mineral oil, compared to 10 mg/kg IV, read-out: F (Bioavailability)) of 120%, an AUC ([2]; po, 50 mg/kg, rats, 50 mg/kg oral, 10% Brij35/water) of 1250 ng·h/mL and a bioavailability ([2]; po, 50 mg/kg, rats, 50 mg/kg oral, 10% Brij35/water, compared to 10 mg/kg IV, read-out: F (Bioavailability)) of 64%. It also gave an AUC ([2]; po, 50 mg/kg, rats, 50 mg/kg oral, water) of 1740 ng·h/mL, a bioavailability ([2]; po, 50 mg/kg, rats, 50 mg/kg oral, water, compared to 10 mg/kg IV, read-out: F (Bioavailability)) of 89% and an AUC ([2]; po, 60 mg/kg, rats, 60 mg/kg oral, Cremaphor) of 103 ng·h/mL. For the same molecule, the bioavailability ([2]; po, 60 mg/kg, rats, 60 mg/kg oral, Cremaphor, compared to 10 mg/kg IV, read-out: F (Bioavailability)) was 4%, the AUC ([2]; po, 100 mg/kg, rats, 100 mg/kg oral, Arlacel 83) was 2630 ng·h/mL and the bioavailability ([2]; po, 100 mg/kg, rats, 100 mg/kg oral, Arlacel 83, compared to 10 mg/kg IV, read-out: F (Bioavailability)) was 67%. For the same molecule, the AUC ([2]; po, 100 mg/kg, rats, 100 mg/kg oral, Encapsin CD) was 3520 ng·h/mL, the bioavailability ([2]; po, 100 mg/kg, rats, 100 mg/kg oral, Encapsin CD, compared to 10 mg/kg IV, read-out: F (Bioavailability)) was 90% and the AUC ([2]; po, 100 mg/kg, rats, 100 mg/kg oral, PEG (Polyethyleneglycol)) was 3940 ng·h/mL. It also gave a bioavailability ([2]; po, 100 mg/kg, rats, 100 mg/kg oral, PEG (Polyethyleneglycol), compared to 10 mg/kg IV, read-out: F (Bioavailability)) of 100%, an MIC ([3]; MIC on a molar basis) of 0.009 µM and an MIC [3, 9] of 0.002 µg/mL. The “concentration range of activity against P. gingivalis” value [3] was “nanomolar concentration range”, the “activity greater than Tetracycline against P. gingivalis” value [3] was “more than 100 fold” and the IC50 (Bacteroides levii) was 0.03 µg/mL (≈ 0.132 µM). The IC50 [4] was 0.12 µg/mL (≈ 0.528 µM), the IC50 [5] was 0.04 µg/mL (≈ 0.176 µM) and the IC50 (Fusobacterium nucleatum) was 10 µg/mL (≈ 44 µM). It also gave an IC50 [6] of 0.06 µg/mL (≈ 0.264 µM), an IC50 (Clostridium perfringens) of 1 µg/mL (≈ 4.4 µM) and a zone of inhibition at 1000 µg/mL [7] of 32 mm.

With `Cc1ccc2c(c1)[n+]([O-])c1ccccc1[n+]2[O-]` [2-methylphenazine-5,10-dioxide] the IC50 [1] was 1.5 µg/mL (≈ 6.63 µM), the IC50 (Bacteroides fragilis) was 7 µg/mL (≈ 30.9 µM) and the Deaths ([8]; mice, 15 mg/kg IP, 2.5% CD, 17 injections) was 0. For the same molecule, the Deaths ([8]; mice, 30 mg/kg IP, DMSO, 15 injections) was 0, the Deaths ([8]; mice, 60 mg/kg IP, 10% CD, 1 injection) was 0 and the “toxicity” value ([8]; mice, IP, at several times the therapeutic dose) was “non-toxic”. For the same molecule, the “Other Signs of Toxicity” value ([8]; 15 mg/kg) was “NONE”, the “Other Signs of Toxicity” value ([8]; 30 mg/kg) was “NONE” and the “Other Signs of Toxicity” value ([8]; 60 mg/kg) was “NONE”. For the same molecule, the bioavailability ([2]; po, 80 mg/kg, Rats, 80 mg/kg PO, 10% Cremaphor (Table 8 footnote 1), read-out: F) was ~2%, the bioavailability ([2]; po, 100 mg/kg, Rats, 100 mg/kg PO, 2% Brij 35 (Table 8 footnote 4), read-out: F) was ~100% and the bioavailability ([2]; po, 100 mg/kg, Rats, 100 mg/kg PO, 10% Arlacel 83/Corn Oil (Table 8 footnote 3), read-out: F) was ~37%. For the same molecule, the bioavailability ([2]; po, 100 mg/kg, Rats, 100 mg/kg PO, 100% PEG400 (Table 8 footnote 2), read-out: F) was ~50%, the bioavailability ([2]; po, 100 mg/kg, Rats, 100 mg/kg PO, Encapsin CD (Table 8 footnote 2), read-out: F) was ~50% and the MIC ([3]; MIC on a molar basis) was 0.018 µM. The MIC [3, 9] was 0.004 µg/mL, the “concentration range of activity against P. gingivalis” value [3] was “nanomolar concentration range” and the “activity greater than Tetracycline against P. gingivalis” value [3] was “more than 100 fold”. It also gave an IC50 (Bacteroides levii) of 1 µg/mL (≈ 4.42 µM), an IC50 [4] of 0.35 µg/mL (≈ 1.55 µM) and an IC50 [5] of 0.16 µg/mL (≈ 0.707 µM). The IC50 (Fusobacterium nucleatum) was > 10 µg/mL, the IC50 [6] was 0.2 µg/mL (≈ 0.884 µM) and the IC50 (Clostridium perfringens) was 1 µg/mL (≈ 4.42 µM). The zone of inhibition at 1000 µg/mL [7] was 19 mm.
